Laboratory results as given in PubChem BioAssay (NCI).
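Briefly, cells in 96-well plates were exposed to five compound concentrations for 48 h, and endpoints were estimated by linear interpolation. TGI denotes the concentration required for complete inhibition of growth.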

Experiments:
Experiment in all cases: growth of human tumour cells (NCI), 48 h
DLD-1 colon = test system: DLD-1 colon
DMS 114 small cell lung = test system: DMS 114 small cell lung
DMS 273 small cell lung = test system: DMS 273 small cell lung
HOP-18 NSCLC = test system: HOP-18 NSCLC
KM20L2 colon = test system: KM20L2 colon
LXFL 529 NSCLC = test system: LXFL 529 NSCLC
M19-MEL melanoma = test system: M19-MEL melanoma
RXF-631 renal = test system: RXF-631 renal
SNB-78 CNS = test system: SNB-78 CNS

Compound | TGI (DLD-1 colon) [µM] | TGI (DMS 114 small cell lung) [µM] | TGI (DMS 273 small cell lung) [µM] | TGI (HOP-18 NSCLC) [µM] | TGI (KM20L2 colon) [µM] | TGI (LXFL 529 NSCLC) [µM] | TGI (M19-MEL melanoma) [µM] | TGI (RXF-631 renal) [µM] | TGI (SNB-78 CNS) [µM]
CCCCC/C=C1\CCC(CN(C)C)C1=O (configuration not stated) | 14.4 | 29 | 34 | 39.4 | 30.1 | 3.9 | 26.6 | 28.3 | 58.7
COC(=O)[C@@]1(C)/C(=N/NS(=O)(=O)c2ccc(C)cc2)CCC[C@@H]1C | > 100 | 45 | – | > 100 | > 100 | > 100 | > 100 | – | > 100
CN(C)CCNC(=O)c1cccc2c(Nc3ccc(S(=O)(=O)N=C(N)N)cc3)c3ccccc3nc12 | > 100 | 15.1 | 24.2 | – | > 100 | > 100 | 59.9 | – | –
COC(=O)C(C(=O)Cc1ccccc1[N+](=O)[O-])C(=O)OC | > 100 | – | > 100 | > 100 | > 100 | > 100 | > 100 | > 100 | –
CC(Oc1ccc(OCC2CCCCC2)cc1)C(=O)OCC(=O)c1ccc(-c2ccccc2)cc1 (configuration not stated) | > 100 | > 100 | > 100 | > 100 | – | > 100 | > 100 | – | > 100
CS(=O)(=O)c1ccc(-c2cc(-c3ccc(S(C)(=O)=O)cc3)[n+](-c3cc(-c4ccccc4)c([O-])c(-c4ccccc4)c3)c(-c3ccc(S(C)(=O)=O)cc3)c2)cc1 | – | > 100 | > 100 | > 100 | > 100 | > 100 | > 100 | > 100 | > 100
CCOC(=O)/C(=C/c1ccc(N(C)C)cc1)N(CC)CC | – | > 100 | – | – | > 100 | > 100 | 60.1 | – | > 100
C=C(C)C1CCC2(C)CC1c1c(c(C)cc3c1[nH]c1ccccc13)O2 (configuration not stated) | > 25 | > 25 | > 25 | – | > 25 | > 25 | > 25 | – | –
COc1ccc(C(C#N)NNC(=O)Cc2ccccc2)cc1OC (configuration not stated) | > 100 | > 100 | > 100 | > 100 | – | > 100 | > 100 | – | > 100
CCOC(=O)C1SC(=Nc2ccccc2)N=C1C (configuration not stated) | > 100 | > 100 | – | > 100 | > 100 | > 100 | > 100 | > 100 | > 100
Cc1nn(C(=O)CC(=O)Nc2ccc(Cl)cc2)c(C)c1N=Nc1ccccc1C(=O)O | > 100 | > 100 | > 100 | – | > 100 | > 100 | > 100 | – | > 100
C[N+](C)(C)CC1CCC/C1=N\OC(=O)c1ccccc1 (configuration not stated) | > 100 | > 100 | – | > 100 | > 100 | > 100 | > 100 | – | > 100
C=CN1C(=O)[C@H](Oc2ccccc2)[C@@H]1c1ccccc1 | > 100 | > 100 | – | > 100 | > 100 | > 100 | > 100 | – | > 100
O=[N+]([O-])c1ccc(-c2cnc3ccccn23)cc1 | – | > 100 | > 100 | – | > 100 | > 100 | > 100 | – | > 100
COc1cccc(C2CC23C(=O)NC(=O)NC3=O)c1 (configuration not stated) | – | > 100 | > 100 | – | > 100 | > 100 | > 100 | – | > 100
C=CCC1(CN(C)C)CC/C(=C\c2ccc(Cl)cc2)C1=O (configuration not stated) | > 94.4 | > 72.2 | > 59.1 | > 100 | > 67.4 | > 74.8 | > 92.7 | – | > 72
CC(C)=CC1CC(=[N+]=[N-])C(=O)C1(C)C (configuration not stated) | > 100 | > 100 | – | > 100 | > 100 | > 100 | > 100 | – | > 100
CC1(C)CC(=O)CC(=Nc2ccc([N+](=O)[O-])cc2)C1 | 49.6 | > 100 | > 100 | > 100 | > 100 | > 100 | > 100 | > 100 | > 100
